# ChEMBL document CHEMBL4811255, “Antibacterial and Antifungal Polyketides from the Fungus Aspergillus unguis PSU-MF16” (J Nat Prod, 2021)
# Active and inactive are the calls of the source. The rule behind the calls is not given here.
# Assays:
# Cryptococcus neoformans [1] = assay: Antifungal activity against Cryptococcus neoformans ATCC 90113 assessed as fungal growth inhibition incubated for 24 to 48 hrs by CLSI protocol based agar microdilution method; type: functional; conditions: time 24-48 hrs
# Candida albicans [2] = assay: Antifungal activity against Candida albicans NCPF 90028 assessed as fungal growth inhibition incubated for 24 to 48 hrs by CLSI protocol based agar microdilution method; type: functional; conditions: time 24-48 hrs
# Nannizzia gypsea [3] = assay: Antifungal activity against Microsporum gypseum assessed as fungal growth inhibition incubated for 4 days by CLSI protocol based agar microdilution method; type: functional; conditions: 96 h, time 4 day
# Staphylococcus aureus [4] = assay: Antibacterial activity against methicillin-resistant Staphylococcus aureus assessed as bacterial growth inhibition by CLSI protocol based assay; type: functional
# Cryptococcus neoformans [5] = assay: Antifungal activity against Cryptococcus neoformans ATCC 90113 assessed as fungal growth inhibition by CLSI protocol based assay; type: functional
# Vero [6] = assay: Cytotoxicity against African green monkey Vero cells at 50 ug/ml incubated for 24 hrs by MTT assay; type: cell-based; conditions: chlorocebus sabaeus, dose 50 µg/ml
# Nannizzia gypsea [7] = assay: Antifungal activity against Microsporum gypseum assessed as fungal growth inhibition by CLSI protocol based assay; type: functional
# Vero [8] = assay: Cytotoxicity against African green monkey Vero cells by colorimetric assay; type: cell-based; conditions: Chlorocebus sabaeus
# Staphylococcus aureus [9] = assay: Antibacterial activity against Staphylococcus aureus ATCC 25923 assessed as bacterial growth inhibition incubated for 18 hrs by CLSI protocol based agar microdilution method; type: functional
# Candida albicans [10] = assay: Antifungal activity against Candida albicans NCPF 90028 assessed as fungal growth inhibition at 50 ug/ml by CLSI protocol based assay; type: functional, organism-based; conditions: dose 50.0 µg/ml
# Staphylococcus aureus [11] = assay: Antibacterial activity against methicillin-resistant Staphylococcus aureus assessed as bacterial growth inhibition incubated for 18 hrs by CLSI protocol based agar microdilution method; type: functional
# Nannizzia gypsea [12] = assay: Antifungal activity against Microsporum gypseum assessed as fungal growth inhibition at 50 ug/ml by CLSI protocol based assay; type: functional, organism-based; conditions: dose 50.0 µg/ml
# Staphylococcus aureus [13] = assay: Antibacterial activity against Staphylococcus aureus ATCC 25923 assessed as bacterial growth inhibition at 50 ug/ml by CLSI protocol based assay; type: functional, organism-based; conditions: dose 50.0 µg/ml
# Staphylococcus aureus [14] = assay: Antibacterial activity against methicillin-resistant Staphylococcus aureus assessed as bacterial growth inhibition at 50 ug/ml by CLSI protocol based assay; type: functional, organism-based; conditions: dose 50.0 µg/ml
# Candida albicans [15] = assay: Antifungal activity against Candida albicans NCPF 90028 assessed as fungal growth inhibition by CLSI protocol based assay; type: functional
# Vero [16] = assay: Cytotoxicity against African green monkey Vero cells incubated for 24 hrs by MTT assay; type: cell-based; conditions: Chlorocebus sabaeus
# Staphylococcus aureus [17] = assay: Antibacterial activity against Staphylococcus aureus ATCC 25923 assessed as bacterial growth inhibition by CLSI protocol based assay; type: functional
compound,measurement,setting,value
C[C@@H]1[C@H](O)[C@@H](C)/C=C/C=C/C=C/C=C/C=C/C=C/C=C/[C@H](O[C@@H]2O[C@H](C)[C@@H](O)[C@H](N)[C@@H]2O)C[C@@H]2O[C@](O)(C[C@@H](O)C[C@@H](O)[C@H](O)CC[C@@H](O)C[C@@H](O)CC(=O)O[C@H]1C)C[C@H](O)[C@H]2C(=O)O [AMPHOTERICIN B],MIC,Cryptococcus neoformans [1],2 µg/mL
same,MIC,Candida albicans [2],0.5 µg/mL
C/C=C(\C)c1cc(O)c(C)c2c1C(=O)Oc1c(C)c(O)c(C(=O)O)c(/C(C)=C/C)c1O2,MIC,Nannizzia gypsea [3],1 µg/mL
same,MIC,Cryptococcus neoformans [1],0.25 µg/mL
same,MIC,Staphylococcus aureus [4],64 µg/mL
same,MIC,Candida albicans [2],0.25 µg/mL
same,MIC,Cryptococcus neoformans [5],64 µg/mL
same,Activity,Vero [6],Non-Toxic
same,MIC,Nannizzia gypsea [7],200 µg/mL
same,IC50,Vero [8],4.6 µg/mL
same,MIC,Staphylococcus aureus [9],0.25 µg/mL
same,Activity,Candida albicans [10],inactive
same,MIC,Staphylococcus aureus [11],0.5 µg/mL
same,Activity,Nannizzia gypsea [12],inactive
COC(=O)c1c(C)cc(O)cc1O [METHYL ORSELLINATE],Activity,Staphylococcus aureus [13],inactive
same,MIC,Nannizzia gypsea [3],1 µg/mL
same,MIC,Cryptococcus neoformans [1],0.25 µg/mL
same,Activity,Staphylococcus aureus [14],inactive
same,MIC,Candida albicans [2],0.25 µg/mL
same,MIC,Cryptococcus neoformans [5],200 µg/mL
same,Activity,Vero [6],Non-Toxic
same,IC50,Vero [8],4.6 µg/mL
same,MIC,Staphylococcus aureus [9],0.25 µg/mL
same,Activity,Candida albicans [10],inactive
same,MIC,Staphylococcus aureus [11],0.5 µg/mL
same,Activity,Nannizzia gypsea [12],inactive
C/C=C(\C)c1cc(O)c(C)c2c1Oc1cc(O)c(Cl)c(C)c1C(=O)O2,MIC,Nannizzia gypsea [3],1 µg/mL
same,MIC,Cryptococcus neoformans [1],0.25 µg/mL
same,MIC,Staphylococcus aureus [4],8 µg/mL
same,MIC,Candida albicans [2],0.25 µg/mL
same,MIC,Candida albicans [15],8 µg/mL
same,MIC,Cryptococcus neoformans [5],32 µg/mL
same,MIC,Nannizzia gypsea [7],8 µg/mL
same,IC50,Vero [8],4.6 µg/mL
same,IC50,Vero [16],86 µg/mL
same,MIC,Staphylococcus aureus [17],8 µg/mL
same,MIC,Staphylococcus aureus [11],0.5 µg/mL
C/C=C(\C)c1cc(O)c(C)c2c1Oc1cc(O)cc(C)c1C(=O)O2,MIC,Nannizzia gypsea [3],1 µg/mL
same,MIC,Cryptococcus neoformans [1],0.25 µg/mL
same,Activity,Staphylococcus aureus [14],inactive
same,MIC,Cryptococcus neoformans [5],200 µg/mL
same,Activity,Vero [6],Non-Toxic
same,MIC,Staphylococcus aureus [17],128 µg/mL
same,Activity,Candida albicans [10],inactive
same,Activity,Nannizzia gypsea [12],inactive
C/C=C(\C)c1cc(O)c(C)c2c1C(=O)Oc1c(C)c(O)c(Cl)c(/C(C)=C/C)c1O2,MIC,Nannizzia gypsea [3],1 µg/mL
same,MIC,Cryptococcus neoformans [1],0.25 µg/mL
same,MIC,Staphylococcus aureus [4],0.5 µg/mL
same,MIC,Candida albicans [2],0.25 µg/mL
same,MIC,Cryptococcus neoformans [5],0.5 µg/mL
same,IC50,Vero [8],4.6 µg/mL
same,IC50,Vero [16],16 µg/mL
same,MIC,Staphylococcus aureus [17],0.5 µg/mL
same,MIC,Staphylococcus aureus [9],0.25 µg/mL
same,Activity,Candida albicans [10],inactive
same,MIC,Staphylococcus aureus [11],0.5 µg/mL
C/C=C(\C)c1c2c(c(C)c(O)c1C(=O)O)OC(=O)c1c(C)cc(O)cc1O2,Activity,Staphylococcus aureus [13],inactive
same,MIC,Nannizzia gypsea [3],1 µg/mL
same,MIC,Cryptococcus neoformans [1],0.25 µg/mL
same,Activity,Staphylococcus aureus [14],inactive
same,MIC,Candida albicans [2],0.25 µg/mL
same,MIC,Cryptococcus neoformans [5],200 µg/mL
same,Activity,Vero [6],Non-Toxic
same,IC50,Vero [8],4.6 µg/mL
same,MIC,Staphylococcus aureus [9],0.25 µg/mL
same,Activity,Candida albicans [10],inactive
same,MIC,Staphylococcus aureus [11],0.5 µg/mL
same,Activity,Nannizzia gypsea [12],inactive
Cc1c2ccncc2c(C)c2c1[nH]c1ccccc12 [ELLIPTECINE],IC50,Vero [8],4 µg/mL
C/C=C(\C)c1cc(O)c(C)c(O)c1C(=O)Oc1cc(/C(C)=C/C)c(C(=O)O)c(O)c1C [AGONODEPSIDE B],MIC,Nannizzia gypsea [3],0.5 µg/mL
same,MIC,Cryptococcus neoformans [1],0.5 µg/mL
same,MIC,Staphylococcus aureus [4],16 µg/mL
same,MIC,Staphylococcus aureus [11],0.5 µg/mL
C/C=C(\C)c1c(Cl)c(O)c(C)c2c1Oc1c(Cl)c(O)c(Cl)c(C)c1C(=O)O2,MIC,Nannizzia gypsea [3],1 µg/mL
same,MIC,Cryptococcus neoformans [1],0.25 µg/mL
same,MIC,Staphylococcus aureus [4],2 µg/mL
same,MIC,Candida albicans [2],0.25 µg/mL
same,MIC,Cryptococcus neoformans [5],8 µg/mL
same,IC50,Vero [8],4.6 µg/mL
same,IC50,Vero [16],110 µg/mL
same,MIC,Staphylococcus aureus [17],2 µg/mL
same,MIC,Staphylococcus aureus [9],0.25 µg/mL
same,Activity,Candida albicans [10],inactive
same,MIC,Staphylococcus aureus [11],0.5 µg/mL
same,Activity,Nannizzia gypsea [12],inactive
C/C=C(\C)c1cc(OC(=O)c2c(C)cc(O)cc2O)c(C)c(O)c1C(=O)O,MIC,Nannizzia gypsea [3],1 µg/mL
same,MIC,Cryptococcus neoformans [1],0.25 µg/mL
same,MIC,Staphylococcus aureus [4],128 µg/mL
same,MIC,Candida albicans [2],0.25 µg/mL
same,MIC,Cryptococcus neoformans [5],32 µg/mL
same,IC50,Vero [8],4.6 µg/mL
same,IC50,Vero [16],110 µg/mL
same,MIC,Staphylococcus aureus [17],128 µg/mL
same,MIC,Staphylococcus aureus [9],0.25 µg/mL
same,Activity,Candida albicans [10],inactive
same,MIC,Staphylococcus aureus [11],0.5 µg/mL
same,Activity,Nannizzia gypsea [12],inactive
Clc1ccccc1C(c1ccccc1)(c1ccccc1)n1ccnc1 [CLOTRIMAZOLE],MIC,Nannizzia gypsea [3],2 µg/mL
C/C=C(\C)c1cc(O)c(C)c2c1Oc1c(C)c(O)cc(/C(C)=C/C)c1C(=O)O2,MIC,Nannizzia gypsea [3],1 µg/mL
same,MIC,Cryptococcus neoformans [1],0.25 µg/mL
same,MIC,Staphylococcus aureus [4],1 µg/mL
same,MIC,Candida albicans [2],0.25 µg/mL
same,MIC,Cryptococcus neoformans [5],1 µg/mL
same,IC50,Vero [16],17 µg/mL
same,MIC,Staphylococcus aureus [17],2 µg/mL
same,MIC,Staphylococcus aureus [9],0.25 µg/mL
same,Activity,Candida albicans [10],inactive
same,MIC,Staphylococcus aureus [11],0.5 µg/mL
C/C=C(\C)c1cc(O)c(C)c(O)c1C(=O)Oc1cc2c(c(O)c1C)C(=O)O[C@@]2(C)CC,MIC,Nannizzia gypsea [3],1 µg/mL
same,MIC,Cryptococcus neoformans [1],0.25 µg/mL
same,MIC,Staphylococcus aureus [4],200 µg/mL
same,MIC,Candida albicans [2],0.25 µg/mL
same,MIC,Cryptococcus neoformans [5],200 µg/mL
same,IC50,Vero [8],4.6 µg/mL
same,IC50,Vero [16],45 µg/mL
same,MIC,Staphylococcus aureus [17],200 µg/mL
same,MIC,Staphylococcus aureus [9],0.25 µg/mL
same,Activity,Candida albicans [10],inactive
same,MIC,Staphylococcus aureus [11],0.5 µg/mL
same,Activity,Nannizzia gypsea [12],inactive
C=C(c1cc(O)c(C)c2c1Oc1cc(O)cc(C)c1C(=O)O2)[C@H](C)O,MIC,Nannizzia gypsea [3],0.5 µg/mL
same,MIC,Cryptococcus neoformans [1],0.5 µg/mL
C/C=C(\C)c1c(Cl)c(OC)c(C)c2c1Oc1c(Cl)c(O)c(Cl)c(C)c1C(=O)O2,MIC,Nannizzia gypsea [3],1 µg/mL
same,MIC,Cryptococcus neoformans [1],0.25 µg/mL
same,MIC,Staphylococcus aureus [4],8 µg/mL
same,MIC,Candida albicans [2],0.25 µg/mL
same,MIC,Cryptococcus neoformans [5],16 µg/mL
same,IC50,Vero [8],4.6 µg/mL
same,IC50,Vero [16],57 µg/mL
same,MIC,Staphylococcus aureus [17],4 µg/mL
same,MIC,Staphylococcus aureus [9],0.25 µg/mL
same,Activity,Candida albicans [10],inactive
same,MIC,Staphylococcus aureus [11],0.5 µg/mL
same,Activity,Nannizzia gypsea [12],inactive
C/C=C(\C)c1c(Cl)c(O)c(C)c2c1Oc1cc(O)c(Cl)c(C)c1C(=O)O2,MIC,Nannizzia gypsea [3],1 µg/mL
same,MIC,Cryptococcus neoformans [1],0.25 µg/mL
same,MIC,Staphylococcus aureus [4],1 µg/mL
same,MIC,Candida albicans [2],0.25 µg/mL
same,MIC,Candida albicans [15],200 µg/mL
same,MIC,Cryptococcus neoformans [5],128 µg/mL
same,IC50,Vero [8],4.6 µg/mL
same,IC50,Vero [16],8.9 µg/mL
same,MIC,Staphylococcus aureus [17],2 µg/mL
same,MIC,Staphylococcus aureus [9],0.25 µg/mL
same,MIC,Staphylococcus aureus [11],0.5 µg/mL
C/C=C(\C)c1cc(O)c(C)c(OC(=O)c2c(/C(C)=C/C)cc(O)c(C)c2O)c1 [AGONODEPSIDE A],MIC,Cryptococcus neoformans [1],0.25 µg/mL
same,MIC,Staphylococcus aureus [4],2 µg/mL
same,MIC,Staphylococcus aureus [9],0.25 µg/mL
same,MIC,Staphylococcus aureus [11],0.25 µg/mL
